Source: US10023593B2, “ALK kinase inhibitor, and preparation method and uses thereof” (BEIJING PEARL BIOTECHNOLOGY LIMITED LIABILITY COMPANY, priority 2014, dated 2018)

Assays:
[1] = biological target: T1, L1196M mutant ALK kinase (Homo sapiens, UniProt Q9UM73, L1196M); experiment: HTRF KinEASE-TK assay, inhibitory activity on L1196M mutant ALK kinase; format: biochemical; settings: L1196M mutant ALK 1 ng/μl, substrate 1 μM, ATP 5 μM, 30° C. 35 minutes, read-out: Inhibition on ALK kinases (L1196M mutant), IC50
T1 construct: purchased Sino-US Crown Bioscience, Inc. batch number ALKm_20110923
Outline: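 HTRF TK assay: mutant kinase 1 ng/μl, substrate 1 μM, ATP 5 μM, 5 mM MgCl2, 1 mM DTT, 1% DMSO, 35 min at 30 °C. 665/615 ratio read; inhibition normalised to no-compound and 10.4 μM LDK-378 controls; IC50 from curve fit.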

[2] = test system: NCI-H2228 cell line; experiment: CellTiter-Glo cell proliferation inhibition on NCI-H2228 cell line; format: cell-based; settings: Homo sapiens, NCI-H2228 cells, 5000 cells/well, 4 days drug treatment
Outline: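 NCI-H2228 cells, 5000/well in RPMI-1640 + 10% FBS, treated with compounds 2 h after seeding (0.5% DMSO final) for 4 days at 37° C. Viability by CellTiter-Glo luminescence; inhibition relative to DMSO control, IC50 from curve fit.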

T1 sequence (Q9UM73 19-1620 L1196M): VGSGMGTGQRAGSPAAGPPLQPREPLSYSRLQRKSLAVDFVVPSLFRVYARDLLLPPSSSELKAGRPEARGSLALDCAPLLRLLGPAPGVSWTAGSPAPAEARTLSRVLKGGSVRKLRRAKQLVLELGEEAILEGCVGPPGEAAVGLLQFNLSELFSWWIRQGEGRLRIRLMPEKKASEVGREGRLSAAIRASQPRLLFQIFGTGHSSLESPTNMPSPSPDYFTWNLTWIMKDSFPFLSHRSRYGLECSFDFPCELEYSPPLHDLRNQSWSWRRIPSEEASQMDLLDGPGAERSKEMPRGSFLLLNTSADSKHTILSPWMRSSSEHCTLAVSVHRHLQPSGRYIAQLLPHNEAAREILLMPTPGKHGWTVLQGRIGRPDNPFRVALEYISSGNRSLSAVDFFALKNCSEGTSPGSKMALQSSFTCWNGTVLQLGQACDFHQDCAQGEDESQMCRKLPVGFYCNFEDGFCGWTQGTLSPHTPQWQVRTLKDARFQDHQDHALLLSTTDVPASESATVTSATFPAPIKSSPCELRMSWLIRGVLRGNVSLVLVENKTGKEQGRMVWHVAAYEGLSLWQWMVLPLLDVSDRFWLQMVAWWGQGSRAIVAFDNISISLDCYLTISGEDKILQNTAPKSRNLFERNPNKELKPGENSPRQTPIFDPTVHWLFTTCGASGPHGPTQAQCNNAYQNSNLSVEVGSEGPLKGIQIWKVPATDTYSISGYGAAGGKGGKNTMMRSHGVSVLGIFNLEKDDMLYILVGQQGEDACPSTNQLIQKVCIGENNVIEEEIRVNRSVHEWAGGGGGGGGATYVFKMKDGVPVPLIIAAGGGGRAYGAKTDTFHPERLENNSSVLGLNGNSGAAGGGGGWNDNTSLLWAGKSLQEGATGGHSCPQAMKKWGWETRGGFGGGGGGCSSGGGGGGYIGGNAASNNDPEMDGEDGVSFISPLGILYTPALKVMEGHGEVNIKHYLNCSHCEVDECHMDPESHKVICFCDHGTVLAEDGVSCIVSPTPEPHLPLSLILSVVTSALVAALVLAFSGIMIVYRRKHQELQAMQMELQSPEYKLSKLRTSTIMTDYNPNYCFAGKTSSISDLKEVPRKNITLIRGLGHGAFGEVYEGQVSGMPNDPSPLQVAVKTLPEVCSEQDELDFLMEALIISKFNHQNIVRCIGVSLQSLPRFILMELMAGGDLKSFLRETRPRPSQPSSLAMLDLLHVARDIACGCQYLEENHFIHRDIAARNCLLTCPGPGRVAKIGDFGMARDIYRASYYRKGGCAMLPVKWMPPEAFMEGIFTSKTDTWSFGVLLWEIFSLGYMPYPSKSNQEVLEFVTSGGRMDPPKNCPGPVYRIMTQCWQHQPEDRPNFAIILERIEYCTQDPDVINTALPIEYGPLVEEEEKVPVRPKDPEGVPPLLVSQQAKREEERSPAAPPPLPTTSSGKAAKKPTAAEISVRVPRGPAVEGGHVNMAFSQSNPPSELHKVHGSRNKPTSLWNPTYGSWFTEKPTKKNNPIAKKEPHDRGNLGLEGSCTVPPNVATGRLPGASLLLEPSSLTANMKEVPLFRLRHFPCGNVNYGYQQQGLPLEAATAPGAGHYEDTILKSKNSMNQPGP

Cc1cc(Nc2ncc(Cl)c(Nc3cn(C)nc3S(=O)(=O)C(C)C)n2)c(OC2CC2)cc1C1CC(C)N(C)C(C)C1 (stereo not shown) [Final product 95]
IC50 [1]: 3 nM
IC50 ([2]; NCI-H2228, 96 h): 26 nM

Cc1cc(Nc2ncc(Cl)c(Nc3cn(C)nc3S(=O)(=O)C(C)C)n2)c(OC2CC2)cc1C1CCOCC1 [Final product 107]
IC50 [1]: 19 nM
IC50 ([2]; NCI-H2228, 96 h): 174 nM

Cc1cc(Nc2ncc(Cl)c(Nc3cn(C)nc3S(=O)(=O)C(C)C)n2)c(OC2CC2)cc1OC1CCN(C)CC1 [Final product 111]
IC50 [1]: 7 nM
IC50 ([2]; NCI-H2228, 96 h): 188 nM

CCN1CCC(c2cc(OC(C)C)c(Nc3ncc(Cl)c(Nc4cn(C)nc4S(=O)(=O)C(C)C)n3)cc2C)CC1 [Final product 118]
IC50 [1]: 10 nM
IC50 ([2]; NCI-H2228, 96 h): 101 nM

Cc1cc(Nc2ncc(Cl)c(Nc3cn(C)nc3S(=O)(=O)C(C)C)n2)c(OC(C)C)cc1C1CCN(C(C)C)CC1 [Final product 126]
IC50 [1]: 12 nM
IC50 ([2]; NCI-H2228, 96 h): 142 nM

Cc1cc(Nc2ncc(Cl)c(Nc3cn(C)nc3S(=O)(=O)CC(C)C)n2)c(OC2CC2)cc1C1CCN(C(C)C)CC1 [Final product 127]
IC50 [1]: 12 nM
IC50 ([2]; NCI-H2228, 96 h): 142 nM

Cc1cc(Nc2ncc(Cl)c(Nc3cn(C)nc3S(=O)(=O)C(C)C)n2)c(OC2CC2)cc1C1CCN(CCO)CC1 [Final product 133, 2-(4-(4-(5-chloro-4-(3-(isopropylsulfonyl)-1-methyl-1H-pyrazol-4-amino)pyrimidin-2-amino)-5-cyclopropoxy-2-methylphenyl)piperidin-1-yl) ethanol]
IC50 [1]: 6 nM
IC50 ([2]; 96 h): 41 nM

CCOc1cc(C2CCN(CCO)CC2)c(C)cc1Nc1ncc(Cl)c(Nc2cn(C)nc2S(=O)(=O)C(C)C)n1 [Final product 135]
IC50 [1]: 7 nM
IC50 ([2]; NCI-H2228, 96 h): 33 nM

Cc1cc(Nc2ncc(Cl)c(Nc3cn(C)nc3S(=O)(=O)CC(C)C)n2)c(OC2CC2)cc1C1CCN(CCO)CC1 [Final product 137]
IC50 [1]: 11 nM
IC50 ([2]; NCI-H2228, 96 h): 103 nM

Cc1cc(Nc2ncc(Cl)c(Nc3cn(C)nc3S(=O)(=O)C(C)C)n2)c(OC2CCC2)cc1C1CCN(CCO)CC1 [Final product 138]
IC50 [1]: 8 nM
IC50 ([2]; NCI-H2228, 96 h): 60 nM

Cc1cc(Nc2ncc(Cl)c(Nc3cn(C)nc3S(=O)(=O)C(C)C)n2)c(OC2CC2)cc1C1CCN(CCN(C)C)CC1 [Final product 146, 5-chloro-N^2-(2-cyclopropoxy-4-(1-(2-(dimethylamino)ethyl)piperidin-4-yl)-5-methylphenyl)-N^4-(3-(isopropylsulfonyl)-1-methyl-1H-pyrazol-4-yl)-pyrimidin-2,4-diamine]
IC50 [1]: 5 nM
IC50 ([2]; 96 h): 199 nM

Cc1cc(Nc2ncc(Cl)c(Nc3cn(C)nc3S(=O)(=O)C(C)C)n2)c(OC(C)C)cc1C1CCN(C(C)(C)CO)CC1 [Final product 152]
IC50 [1]: 9 nM
IC50 ([2]; NCI-H2228, 96 h): 86 nM

Cc1cc(Nc2ncc(Cl)c(Nc3cn(C)nc3S(=O)(=O)C(C)C)n2)c(OC2CC2)cc1C1CCN(C2COC2)CC1 [Final product 156]
IC50 [1]: 10 nM
IC50 ([2]; NCI-H2228, 96 h): 44 nM

Cc1cc(Nc2ncc(Cl)c(Nc3cn(C)nc3S(=O)(=O)C(C)C)n2)c(OC2CC2)cc1C1CCN(C2CC2)CC1 [Final product 157]
IC50 [1]: 11 nM
IC50 ([2]; NCI-H2228, 96 h): 142 nM

Cc1cc(Nc2ncc(Cl)c(Nc3cn(C)nc3S(=O)(=O)C(C)C)n2)c(OC2CC2)cc1C1CCN(C=O)CC1 [Final product 159, 4-(4-(5-chloro-4-(3-(isopropylsulfonyl)-1-methyl-1H-pyrazol-4-amino)pyrimidin-2-amino)-5-cyclopropoxy-2-methylphenyl)piperidin-1-formaldehyde]
IC50 [1]: 9 nM
IC50 ([2]; NCI-H2228, 96 h): 43 nM

CC(=O)N1CCC(c2cc(OC3CC3)c(Nc3ncc(Cl)c(Nc4cn(C)nc4S(=O)(=O)C(C)C)n3)cc2C)CC1 [Final product 160, 1-acetyl-4-(4-(5-chloro-4-(3-(isopropylsulfonyl)-1-methyl-1H-pyrazol-4-amino)pyrimidin-2-amine)-5-cyclopropoxy-2-methylphenyl)piperidine]
IC50 [1]: 9 nM
IC50 ([2]; NCI-H2228, 96 h): 35 nM

Cc1cc(Nc2ncc(Cl)c(Nc3cn(C)nc3S(=O)(=O)C(C)C)n2)c(OC2CC2)cc1C1CCN(C(=O)C(F)(F)F)CC1 [Final product 161, 1-trifluoroacetyl-4-(4-(5-chloro-4-(3-(isopropylsulfonyl)-1-methyl-1H-pyrazol-4-amino)pyrimidin-2-amine)-5-cyclopropoxy-2-methylphenyl)piperidine]
IC50 [1]: 43 nM
IC50 ([2]; NCI-H2228, 96 h): 47 nM

Cc1cc(Nc2ncc(Cl)c(Nc3cn(C)nc3S(=O)(=O)C(C)C)n2)c(OC2CC2)cc1C1CCN(C(=O)C2CC2)CC1 [Final product 162, 1-cyclopropylformyl-4-(4-(5-chloro-4-(3-(isopropylsulfonyl)-1-methyl-1H-pyrazol-4-amino)pyrimidin-2-amine)-5-cyclopropoxy-2-methylphenyl)piperidine]
IC50 [1]: 21 nM
IC50 ([2]; NCI-H2228, 96 h): 34 nM

Cc1cc(Nc2ncc(Cl)c(Nc3cn(C)nc3S(=O)(=O)C(C)C)n2)c(OC2CC2)cc1C1CCN(C(=O)C(C)(C)C)CC1 [Final product 164, 1-pivaloyl-4-(4-(5-chloro-4-(3-(isopropylsulfonyl)-1-methyl-1H-pyrazol-4-amino)pyrimidin-2-amine)-5-cyclopropoxy-2-methylphenyl)piperidine]
IC50 [1]: 56 nM
IC50 ([2]; NCI-H2228, 96 h): 87 nM

Cc1cc(Nc2ncc(Cl)c(Nc3cn(C)nc3S(=O)(=O)C(C)C)n2)c(OC2CC2)cc1C1CCN(C(=O)CN(C)C)CC1 [Final product 165, 1-(2-dimethylamino)acetyl-4-(4-(5-chloro-4-(3-(isopropylsulfonyl)-1-methyl-1H-pyrazol-4-amino)pyrimidin-2-amino)-5-cyclopropoxy-2-methylphenyl)piperidine]
IC50 [1]: 3 nM
IC50 ([2]; NCI-H2228, 96 h): 35 nM
